In patent publication US20250034167A1, “HETEROCYCLIC COMPOUNDS AND METHODS OF USE” (AMGEN INC., priority 2021, published 2025):
Like-named read-outs stand apart in the source and are kept apart here.

Columns and labels:
[1] = system: Phosphorylation of ERK1/2 in AsPC-1 cells; experiment: Phospho-ERK1/2 MSD Assay; type: cell-based
Experimental: Sixteen hours prior to compound treatment, AsPC-1 cells were seeded in 96-well cell culture plates at a density of 25,000 cells/well and incubated at 37° C., 5% CO2. A compound dose-response titration was diluted in growth media, added to appropriate wells of a cell culture plate, and then incubated at 37° C., 5% CO2 for 2 hours.

[2] = target: His-tagged KRAS G12D protein (Homo sapiens, UniProt P01116, G12D); experiment: biochemical
His-tagged KRAS G12D protein, sequence (P01116 1-188 isoform P01116-2 G12D): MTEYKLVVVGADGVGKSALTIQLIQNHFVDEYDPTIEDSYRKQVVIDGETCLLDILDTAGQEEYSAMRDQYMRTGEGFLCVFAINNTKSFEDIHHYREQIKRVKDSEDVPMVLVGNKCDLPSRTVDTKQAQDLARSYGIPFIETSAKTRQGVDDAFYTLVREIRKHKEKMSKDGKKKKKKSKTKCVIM
Experimental: The plate was incubated for 30 minutes at room temperature. Biotinylated KRPep-2d substrate (Amgen) was diluted to nM in Assay Buffer and 2 μL was added to all wells and incubated for 1 hour at room temperature. Detection Reagent (0.4 nM LANCE Eu-W1024 Anti-6×His (Perkin Elmer AD0401), 5 nM streptavidin-d2 (Cisbio 610SADLA)) was prepared in Assay Buffer, then 4 µL was added to the plate and incubated for 1 hour at room temperature.

[3] = Homo sapiens, ASPC1, 2 h, read-out: 2 h p-ERK (AsPC-1 cells), IC50, AsPC-1 cells, 2 h compound treatment
[4] = read-out: 2 h p-ERK (AsPC-1 cells), IC50, AsPC-1 cells, 2 h compound treatment
[5] = Homo sapiens, ASPC1, read-out: 2 h p-ERK (AsPC-1 cells), IC50, AsPC-1 cells, 2 h compound treatment

| Structure (SMILES) | IC50 [1, 3] [nM] | IC50 [2] [nM] | IC50 [1, 4] [nM] | IC50 [1, 5] [nM] |
| --- | --- | --- | --- | --- |
| CCc1c(F)ccc2cc(O)cc(-c3ncc4c(N5CC(C)CC(O)C5)nc(OC[C@@]56CCCN5C[C@H](F)C6)nc4c3F)c12 (mixture of isomers) [Example 96, rac-(3R,5S)-1-(7-(8-Ethyl-7-fluoro-3-hydroxynaphthalen-1-yl)-8-fluoro-2-(((2R,7aS)-2-fluorotetrahydro-1H-pyrrolizin-7a(5H)-yl)methoxy)pyrido[4,3-d]pyrimidin-4-yl)-5-methylpiperidin-3-ol] | 119 | 5 | – | – |
| CCc1c(F)ccc2cc(O)cc(-c3ncc4c(N5C[C@@H](O)C[C@@H](F)C5)nc(OC[C@@]56CCCN5C[C@H](F)C6)nc4c3F)c12 (mixture of isomers) [Example 115, rac-(3S,5R)-1-(7-(8-Ethyl-7-fluoro-3-hydroxynaphthalen-1-yl)-8-fluoro-2-(((2R,7aS)-2-fluorotetrahydro-1H-pyrrolizin-7a(5H)-yl)methoxy)pyrido[4,3-d]pyrimidin-4-yl)-5-fluoropiperidin-3-ol] | 83 | 3 | – | – |
| CCc1c(F)ccc2cc(O)cc(-c3ncc4c(N5C[C@@H](O)C[C@H](F)C5)nc(OC[C@@]56CCCN5C[C@H](F)C6)nc4c3F)c12 (racemic) [Example 116, rac-(35,5S)-1-(7-(8-Ethyl-7-fluoro-3-hydroxynaphthalen-1-yl)-8-fluoro-2-(((2R,7aS)-2-fluorotetrahydro-1H-pyrrolizin-7a(5H)-yl)methoxy)pyrido[4,3-d]pyrimidin-4-yl)-5-fluoropiperidin-3-ol] | 792 | 4 | – | – |
| CCc1c(F)ccc2cc(O)cc(-c3ncc4c(N5CCC[C@H]6OCC[C@H]65)nc(OC[C@@]56CCCN5C[C@H](F)C6)nc4c3F)c12 (relative stereo) [Example 42, rel-5-Ethyl-6-fluoro-4-(8-fluoro-2-(((2R,7aS)-2-fluorotetrahydro-1H-pyrrolizin-7a(5H)-yl)methoxy)-4-((3aR,7aR)-hexahydrofuro[3,2-b]pyridin-4(2H)-yl)pyrido[4,3-d]pyrimidin-7-yl)naphthalen-2-ol] | 810 | 38 | – | – |
| CCc1c(F)ccc2cc(O)cc(-c3ncc4c(N5CC[C@H](O)[C@H](O)C5)nc(OC[C@@]56CCCN5C[C@H](F)C6)nc4c3F)c12 (relative stereo) [Example 100, rel-(3R,4S)-1-(7-(8-Ethyl-7-fluoro-3-hydroxynaphthalen-1-yl)-8-fluoro-2-(((2R,7aS)-2-fluorotetrahydro-1H-pyrrolizin-7a(5H)-yl)methoxy)pyrido[4,3-d]pyrimidin-4-yl)piperidine-3,4-diol] | 3700 | 9 | – | – |
| CCc1c(F)ccc2cc(O)cc(-c3ncc4c(N5CC[C@H](O)[C@@H](O)C5)nc(OC[C@@]56CCCN5C[C@H](F)C6)nc4c3F)c12 (relative stereo) [Example 101, rel-(3S,4S)-1-(7-(8-Ethyl-7-fluoro-3-hydroxynaphthalen-1-yl)-8-fluoro-2-(((2R,7aS)-2-fluorotetrahydro-1H-pyrrolizin-7a(5H)-yl)methoxy)pyrido[4,3-d]pyrimidin-4-yl)piperidine-3,4-diol] | > 10000 | 20 | – | – |
| CCc1c(F)ccc2cc(O)cc(-c3ncc4c(N5C[C@H](C)C[C@@H](O)C5)nc(OC[C@@]56CCCN5C[C@H](F)C6)nc4c3F)c12 (relative stereo) [Example 160, rel-(3R,5R)-1-(7-(8-Ethyl-7-fluoro-3-hydroxy-naphthalen-1-yl)-8-fluoro-2-(((2R,7aS)-2-fluorotetrahydro-1H-pyrrolizin-7a(5H)-yl)methoxy)pyrido[4,3-d]pyrimidin-4-yl)-5-methylpiperidin-3-ol] | 414 | 3 | – | – |
| CCc1c(F)ccc2cc(O)cc(-c3ncc4c(N5CC6CC(O)C(C6)C5)nc(OC[C@@]56CCCN5C[C@H](F)C6)nc4c3F)c12 (single isomer, unassigned) [Example 23] | – | 31 | 2380 | – |
| CCc1c(F)ccc2cc(O)cc(-c3ncc4c(N5CC6CC(O)C(C6)C5)nc(OC[C@@]56CCCN5C[C@H](F)C6)nc4c3F)c12 (single isomer, unassigned) [Example 24] | – | 2 | 14 | – |
| C#Cc1c(F)ccc2cc(O)cc(-c3ncc4c(N5CC6CC(O)C(C6)C5)nc(OC[C@@]56CCCN5C[C@H](F)C6)nc4c3F)c12 (single isomer, unassigned) [Example 27] | – | 6 | 1030 | – |
| C#Cc1c(F)ccc2cc(O)cc(-c3ncc4c(N5CC6CC(O)C(C6)C5)nc(OC[C@@]56CCCN5C[C@H](F)C6)nc4c3F)c12 (single isomer, unassigned) [Example 28] | – | 1 | 36 | – |
| CCc1cccc2cc(O)cc(-c3ncc4c(N5CC6CC(O)C(C6)C5)nc(OC[C@@]56CCCN5C[C@H](F)C6)nc4c3F)c12 (single isomer, unassigned) [Example 29] | 31 | 1 | – | – |
| Oc1cc(Cl)c(C2CC2)c(-c2ncc3c(N4CC5CC(O)C(C5)C4)nc(OC[C@@]45CCCN4C[C@H](F)C5)nc3c2F)c1 (single isomer, unassigned) [Example 30] | 399 | 3 | – | – |
| C#Cc1cccc2cc(O)cc(-c3ncc4c(N5CC6CC(O)C(C6)C5)nc(OC[C@@]56CCCN5C[C@H](F)C6)nc4c3F)c12 (single isomer, unassigned) [Example 31] | 32 | 2 | – | – |
| CCc1c(F)ccc2cc(O)cc(-c3ncc4c(N5CCCC(O)(C(F)F)C5)nc(OC[C@@]56CCCN5C[C@H](F)C6)nc4c3F)c12 (single isomer, unassigned) [Example 39] | – | 2 | 13 | – |
| CCc1c(F)ccc2cc(O)cc(-c3ncc4c(N5CCCC(O)(C(F)F)C5)nc(OC[C@@]56CCCN5C[C@H](F)C6)nc4c3F)c12 (single isomer, unassigned) [Example 40] | – | 15 | 571 | – |
| C#Cc1c(F)ccc2cc(O)cc(-c3ncc4c(N5CCCC(O)(C(F)F)C5)nc(OC[C@@]56CCCN5C[C@H](F)C6)nc4c3F)c12 (single isomer, unassigned) [Example 41] | 25 | 1 | – | – |
| CCc1c(F)ccc2cc(O)cc(-c3ncc4c(N5CCCC(C#N)CC5)nc(OC[C@@]56CCCN5C[C@H](F)C6)nc4c3F)c12 (single isomer, unassigned) [Example 54] | – | 3 | 116 | – |
| CCc1c(F)ccc2cc(O)cc(-c3ncc4c(N5CCCCC(C)(O)C5)nc(OC[C@@]56CCCN5C[C@H](F)C6)nc4c3F)c12 (single isomer, unassigned) [Example 136] | – | 10 | 614 | – |
| CCc1c(F)ccc2cc(O)cc(-c3ncc4c(N5CCCCC(C)(O)C5)nc(OC[C@@]56CCCN5C[C@H](F)C6)nc4c3F)c12 (single isomer, unassigned) [Example 137] | – | 2 | 40 | – |
| CCc1c(F)ccc2cc(O)cc(-c3ncc4c(N5CC6CC(C#N)C(C6)C5)nc(OC[C@@]56CCCN5C[C@H](F)C6)nc4c3F)c12 (single isomer, unassigned) [Example 145] | – | 8 | 593 | – |
| CCc1c(F)ccc2cc(O)cc(-c3ncc4c(N5CC6CC(C#N)C(C6)C5)nc(OC[C@@]56CCCN5C[C@H](F)C6)nc4c3F)c12 (single isomer, unassigned) [Example 146] | – | 2 | 233 | – |
| CCc1c(F)ccc2cc(O)cc(-c3ncc4c(N5CC(C)CC(C(N)=O)C5)nc(OC[C@@]56CCCN5C[C@H](F)C6)nc4c3F)c12 (single isomer, unassigned) [Example 163] | – | 11 | 2730 | – |
| CCc1c(F)ccc2cc(O)cc(-c3ncc4c(N5CC(C)CC(C(N)=O)C5)nc(OC[C@@]56CCCN5C[C@H](F)C6)nc4c3F)c12 (single isomer, unassigned) [Example 164] | – | 3 | 1200 | – |
| [2H]C([2H])([2H])[C@@]1(O)CCCN(c2nc(OC[C@@]34CCCN3C[C@H](F)C4)nc3c(F)c(-c4cc(O)cc5ccc(F)c(CC)c45)ncc23)C1 [Example 176, (R)-1-(7-(8-Ethyl-7-fluoro-3-hydroxynaphthalen-1-yl)-8-fluoro-2-(((2R,7aS)-2-fluorotetrahydro-1H-pyrrolizin-7a(5H)-yl)methoxy)pyrido[4,3-d]pyrimidin-4-yl)-3-(methyl-d3)piperidin-3-ol] | – | – | – | 5 |
| [2H]C([2H])([2H])[C@]1(O)CCCN(c2nc(OC[C@@]34CCCN3C[C@H](F)C4)nc3c(F)c(-c4cc(O)cc5ccc(F)c(CC)c45)ncc23)C1 [Example 177, (S)-1-(7-(8-Ethyl-7-fluoro-3-hydroxynaphthalen-1-yl)-8-fluoro-2-(((2R,7aS)-2-fluorotetrahydro-1H-pyrrolizin-7a(5H)-yl)methoxy)pyrido[4,3-d]pyrimidin-4-yl)-3-(methyl-d3)piperidin-3-ol] | – | – | – | 109 |
| CCc1c(F)ccc2cc(O)cc(-c3ncc4c(N5CCC[C@@](C)(O)C5)nc(OC[C@]56CCCN5C[C@@H](F)C6)nc4c3F)c12 [Example 178, (R)-1-(7-(8-Ethyl-7-fluoro-3-hydroxynaphthalen-1-yl)-8-fluoro-2-(((2S,7aR)-2-fluorotetrahydro-1H-pyrrolizin-7a(5H)-yl)methoxy)pyrido[4,3-d]pyrimidin-4-yl)-3-methylpiperidin-3-ol bis(2,2,2-trifluoroacetate)] | – | – | – | 8 |
| CCc1c(F)ccc2cc(O)cc(-c3ncc4c(N5CCC[C@@](C)(O)C5)nc(OCC5(CN(C)C)CC5)nc4c3F)c12 [Example 180, (R)-1-(2-((1-((Dimethylamino)methyl)cyclopropyl)methoxy)-7-(8-ethyl-7-fluoro-3-hydroxynaphthalen-1-yl)-8-fluoropyrido[4,3-d]pyrimidin-4-yl)-3-methylpiperidin-3-ol] | 12 | – | – | – |
